In patent publication US20160312240A1, “MODIFIED PYR/PYL RECEPTORS ACTIVATED BY ORTHOGONAL LIGANDS” (The Regents of the University of California, priority 2010, published 2016):

Columns and labels:
[1] = system: PYR1 variants 27B-1, 27B-2, 27B-3, 27B-4, 27B-7, 27B-8 (Table 7); assay: MAV99 growth selection, second round of shuffling (27B' library); format: cell-based, Arabidopsis; conditions: 20 μM fenhexamid; media lacking uracil; Table 7 variants
Experimental: To improve fenhexamid receptor sensitivity, DNA shuffling was employed using the same general experimental scheme outlined previously. Briefly, equimolar amounts of plasmid DNA for the fenhexamid receptors shown in Table 1 were pooled and combined with an equimolar amount of the ePCR1 library DNA. The pooled templates were utilized for DNA shuffling, which was conducted as described in Example 1. A library (named “27”) of ˜400,000 shuffled variants was prepared. The DNA for this library was introduced into the MAV99 pAD-HAB 1 yeast strain as described above and the resulting yeast cells collected and grown on FOA-containing plates to reduce constitutive mutants in the library, yielding the 27B′ library. The 27B′ library was plated onto media lacking uracil but containing 20 μM fenhexamid. ˜50 positives were selected from these plates and subsequently retested on media lacking […] to distinguish constitutive mutants (i.e., false positives) from those mutants that grow specifically in response to fenhexamid (i.e., true positives). The PYR1 coding sequences for the true positives were sequenced to yield the following series of fenhexamid-responsive PYR1 variants (Table 7): […]

[2] = molecular target: T1, PYL2 K64R,Y124H,M164I,V67I,V114I (Arabidopsis thaliana, UniProt O80992, K64R/M164I/V114I/V67I/Y124H); assay: In vitro PP2C inhibition assay, 2:1 receptor to phosphatase; format: biochemical; conditions: FIG. 3B
T1 construct: expressed in transfected cells; host or cells: Saccharomyces cerevisiae Y190 pAD-HAB1
Experimental: (§1) FIGS. 3A-3B. […] FIG. 3A. […] In addition, pocket residue mutations at V114I and/or V67I were introduced. The mutants (listed on left side of panel) were constructed in pBD-PYL2 and transformed into Y190 pAD-HAB1 yeast cells. The transformants were then grown on increasing concentrations of fenhexamid and scored for responsiveness using X-gal staining, performed as described in Park et al., 2009. […] FIG. 3B. In vitro characterization of PYL2 K64R, Y124H, M164I, V67I, V114I mutant. Recombinant wild-type and mutant PYL2 proteins were produced as described previously and used in PP2C assays, as described previously (Park et al., 2009), with the exception that a 2:1 ratio of receptor for phosphatase was used.
(§2) PYR1 is a member of the PYR/PYL receptor protein family, which in Arabidopsis contains 14 members. […] Given the conserved nature of these residues, we speculated that fenhexamid sensitivity could be engineered into other receptor family members by mutating homologous residues in other PYR/PYL receptors. To test this, we introduced the homologous mutations in PYL2 (K64R, corresponding to K59R in PYR1; Y124H, corresponding to Y120H in PYR1; and M164I, corresponding to M158I in PYR1), creating the mutant PYL2^K64R,Y124H,M164I. […]

PYR1 mutant 27-36 = molecular target: T2, PYR1 mutant 27-36 (Arabidopsis thaliana, UniProt O49686, E12G/E43G/I110S/K59R/N133D); assay: Yeast two-hybrid LacZ reporter assay (pAD-HAB1 YRG-2 strain); format: cell-based; conditions: 25 and 50 μM (applied 1-50 μM)
T2 construct: expressed in transfected cells; host or cells: S. cerevisiae YRG-2 expressing pAD-HAB1
Experimental: (§3) Plasmids for three representative mutant clones (27-9, 27-18, and 27-36) were isolated from the primary yeast cells and transformed into a pAD-HAB1 expressing YRG-2 reporter strain (Park et al., Science 324:1068-1071 (2009)) in which Ga14 drives expression of a LacZ reporter gene to allow colorimetric indication of agonist response. Fenhexamid was applied at concentrations of 1, 5, 10, 25, and 50 μM. […] Mutant 27-36 was responsive to fenhexamid at 25 and 50 μM concentrations.

PYR1 mutant 27-18 = molecular target: T3, PYR1 mutant 27-18 (Arabidopsis thaliana, UniProt O49686, K59R/S47P/Y120H); assay: as above; format: cell-based; conditions: 1, 5, 10, 25, and 50 μM
T3 construct: expressed in transfected cells; host or cells: S. cerevisiae YRG-2 expressing pAD-HAB1
Experimental: as §3

PYR1 mutant 27-9 = molecular target: T4, PYR1 mutant 27-9 (Arabidopsis thaliana, UniProt O49686, E153G/K59R/P42S/Y120C); assay: as above; format: cell-based
T4 construct: expressed in transfected cells; host or cells: S. cerevisiae YRG-2 expressing pAD-HAB1
Experimental: as §3

PYL2 K64R,Y124H,M164I = molecular target: T5, PYL2 K64R,Y124H,M164I (Arabidopsis thaliana, UniProt O80992, K64R/M164I/Y124H); assay: Yeast two-hybrid assay, strain Y190 pAD-HAB1, X-gal staining; format: cell-based; conditions: FIG. 3A
T5 construct: expressed in transfected cells; host or cells: Saccharomyces cerevisiae Y190 pAD-HAB1
Experimental: as §1, §2

[3] = molecular target: T1, PYL2 K64R,Y124H,M164I,V67I,V114I; assay: as above; format: cell-based; conditions: FIG. 3A
Experimental: as §1, §2

[4] = system: PYR/PYL-PP2C protein-protein interactions; assay: Yeast competition screen: reduction of ABA-promoted PYR/PYL-PP2C interaction; format: cell-based; conditions: 100 nM ABA and 100 μM test chemical (1000-fold excess), yeast strains
Text: To isolate PYR1 orthogonal receptors, a two-step process was used. First, a large collection of compounds was screened to identify compounds that weakly interact with receptors, defined as such by their ability to displace receptor-bound ABA in competition experiments. Once weak binders were identified, those with the most desirable properties from an end-use perspective were used as targets for iterative mutagenesis and selection schemes. Pre-selection of weak-binding ligands improves the frequency of isolating new receptor proteins, because fewer alterations of the ligand binding site are required to achieve molecular recognition. However, pre-selection is not a prerequisite for success.
Pre-selection of ligands. 74 structurally diverse agrochemicals were obtained, selected from a larger set of approximately 1500 commercially available agrochemicals. These 74 compounds were tested for their ability to reduce ABA-promoted PYR/PYL-PP2C protein-protein interactions in suitable yeast strains when added at 1000-fold excess relative to ABA (i.e. 100 nM ABA and 100 μM test chemical).

T1 sequence (Q9CAJ0 23-511): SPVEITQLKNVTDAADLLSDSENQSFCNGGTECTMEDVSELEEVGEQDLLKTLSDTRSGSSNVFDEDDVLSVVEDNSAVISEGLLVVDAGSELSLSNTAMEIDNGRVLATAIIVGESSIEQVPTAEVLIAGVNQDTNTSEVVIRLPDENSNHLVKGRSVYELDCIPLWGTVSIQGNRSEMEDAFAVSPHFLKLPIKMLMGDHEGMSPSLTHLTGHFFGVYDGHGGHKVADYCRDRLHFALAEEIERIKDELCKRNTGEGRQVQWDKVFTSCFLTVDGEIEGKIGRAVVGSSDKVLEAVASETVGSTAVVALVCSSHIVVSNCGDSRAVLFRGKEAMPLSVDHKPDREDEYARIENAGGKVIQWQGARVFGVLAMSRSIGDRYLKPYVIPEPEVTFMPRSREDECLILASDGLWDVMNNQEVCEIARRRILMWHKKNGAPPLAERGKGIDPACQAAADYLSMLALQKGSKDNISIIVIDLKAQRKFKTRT
T1 sequence (O80992 whole entry K64R/V67I/V114I/Y124H/M164I): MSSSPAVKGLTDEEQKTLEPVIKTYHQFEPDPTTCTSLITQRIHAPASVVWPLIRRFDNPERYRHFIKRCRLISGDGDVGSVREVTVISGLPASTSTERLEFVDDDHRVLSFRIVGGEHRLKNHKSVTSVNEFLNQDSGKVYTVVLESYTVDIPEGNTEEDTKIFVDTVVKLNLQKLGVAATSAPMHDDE
T4 sequence (O49686 whole entry P42S/K59R/Y120C/E153G): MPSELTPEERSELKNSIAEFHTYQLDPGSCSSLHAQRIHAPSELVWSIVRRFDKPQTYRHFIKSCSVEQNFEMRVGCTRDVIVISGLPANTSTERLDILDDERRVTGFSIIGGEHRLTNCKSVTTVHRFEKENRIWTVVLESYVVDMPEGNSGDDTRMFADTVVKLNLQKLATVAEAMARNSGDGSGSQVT
T4 sequence (Q9CAJ0 whole entry, further chain): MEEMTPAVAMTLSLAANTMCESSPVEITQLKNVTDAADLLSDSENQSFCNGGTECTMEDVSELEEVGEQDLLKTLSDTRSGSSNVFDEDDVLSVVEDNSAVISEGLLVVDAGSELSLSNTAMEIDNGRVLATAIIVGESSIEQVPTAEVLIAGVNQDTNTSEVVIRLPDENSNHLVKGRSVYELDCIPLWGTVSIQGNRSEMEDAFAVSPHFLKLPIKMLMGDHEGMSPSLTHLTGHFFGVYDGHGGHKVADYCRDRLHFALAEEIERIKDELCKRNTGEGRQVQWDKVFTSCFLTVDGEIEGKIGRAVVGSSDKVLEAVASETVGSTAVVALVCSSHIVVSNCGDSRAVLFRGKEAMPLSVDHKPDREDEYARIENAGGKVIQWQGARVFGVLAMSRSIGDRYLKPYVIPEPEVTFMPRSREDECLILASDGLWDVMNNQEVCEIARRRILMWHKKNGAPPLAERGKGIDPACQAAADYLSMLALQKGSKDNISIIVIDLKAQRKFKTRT
T2 sequence (Q9CAJ0 23-511): as the sequence (Q9CAJ0 23-511) above
T2 sequence (O49686 whole entry E12G/E43G/K59R/I110S/N133D): as the sequence (O49686 whole entry P42S/K59R/Y120C/E153G) above, with E12G, S42P, E43G, I110S, C120Y, N133D, G153E counted along it
T3 sequence (O49686 whole entry S47P/K59R/Y120H): as the sequence (O49686 whole entry P42S/K59R/Y120C/E153G) above, with S42P, S47P, C120H, G153E counted along it
T3 sequence (Q9CAJ0 23-511, stated change not applied, further chain): as the sequence (Q9CAJ0 23-511) above
T5 sequence (O80992 whole entry K64R/Y124H/M164I): as the sequence (O80992 whole entry K64R/V67I/V114I/Y124H/M164I) above, with I67V, I114V counted along it

Structure (SMILES): CC1(C(=O)Nc2ccc(O)c(Cl)c2Cl)CCCCC1 [fenhexamid]
- Growth in response to fenhexamid (selection) [1]: fenhexamid-responsive
- Response to fenhexamid in in vitro PP2C inhibition assays [2]: respond
- Response to fenhexamid (LacZ staining) (PYR1 mutant 27-36): responsive
- Response to fenhexamid (LacZ staining) (PYR1 mutant 27-18): strongly responded
- Response to fenhexamid (LacZ staining) (PYR1 mutant 27-9; 1 μM): weakly positive
- Response to fenhexamid (LacZ staining) (PYR1 mutant 27-9; 5, 10, 25, and 50 μM): strongly responded
- fenhexamid responsiveness (yeast two-hybrid) (PYL2 K64R,Y124H,M164I): does not show fenhexamid responsiveness
- Response to fenhexamid in yeast assays [3]: respond
- ability to reduce ABA-promoted PYR/PYL-PP2C protein-protein interactions [4]: compete for ABA
